Laboratory results reported in patent US11882828B2, “Mosquito vector control compositions, methods and products utilizing same” (priority 2015, dated 2024).

What was measured:
[1] = system: Anopheles stephensi (Indian malaria mosquito); experiment: whole plant or invertebrate
Method: […] Once the deposits were dry, five non-blood fed adult female Anopheles stephensi (between two to five days old) were added to each well, and sustained with a 10% sucrose solution in a cotton wool plug. Assessment of the knockdown after 1 hour, and mortality after 48 hours was carried out.
(§1) In case of multiple tests, the mean value is reported.

Aedes aegypti [2] = experiment: whole plant or invertebrate
Method: (§2) The individual wells of six (6) well tissue culture plates were treated with 250 μl of an ethanol solution containing a test compound at a defined concentration. Once the deposits were dry, ten non-blood fed adult female Aedes aegypti or Anopheles stephensi (each between two to five day old) were added to each well, and sustained with a 10% sucrose solution in a cotton wool plug.
(§3) Assessment of the mortality was carried out at 48 hours.
(§4) Each treatment was replicated twice, with the mean mortality recorded.

Anopheles stephensi [3] = experiment: whole plant or invertebrate
Method: as §2, §3, §4

[4] = system: Aedes aegypti (Yellow fever mosquito); experiment: whole plant or invertebrate
Method: […] Once the deposits were dry, five non-blood fed adult female Aedes aegypti (between two to five days old) were added to each well, and sustained with a 10% sucrose solution in a cotton wool plug. Assessment of the knockdown after 1 hour, and mortality after 48 hours was carried out.
as §1

Aedes aegypti [5] = experiment: Example B7: evaluation of insecticide impregnated polymer surfaces; format: in vivo; details: AI content 2 wt %, after one hour
Excerpt: (§5) Preparation of polymeric sheets: Certain methoxyacrylate were Impregnated into three polymers: LDPE (low density polyethylene), HDPE (high density polyethylene) and PP (polypropylene) in different concentrations by mixing the respective polymer with a compound at high temperatures and the resultant polymeric material were then mould into thin discs or plaques.
(§6) Twenty four hours prior to the relevant assessment intervals, three to five day old non-blood fed adult mosquitoes were taken from the culture and lightly anaesthetised with carbon dioxide. Ten females were selected and placed in a 250 ml plastic cup, retained with a net lid, provided with a 10% sucrose solution soaked in a cotton wool bung and held under culturing environmental conditions.
(§7) After twenty four hours, impregnated polymer sheets (measuring about 150 mm in diameter and about 0.1 mm in thickness) were removed from storage and wrapped around the glazed side of an 11 cm ceramic tile and held in place with an elastic band. A cup of the pre-selected mosquitoes were again lightly anaesthetised with carbon dioxide and transferred from the holding cup to the base of a 9 cm plastic Petri dish. The relevant impregnated polymer sheet was placed over the Petri dish and held in place with an elastic band. Once the mosquitoes had recovered from the anaesthetic, ca. 1 minute, the impregnated polymer sheet was placed on a holding rack, such that treated side was at an angle of […] to the horizontal.
(§8) After one hour an assessment of mosquito knockdown was made. A mosquito was said to be knocked down if it was unable to right itself once it had fallen over. The mosquitoes were lightly anaesthetised again, and removed from the Petri dish exposure chamber and returned to the holding cups. The mosquitoes were supplied with a 10% sucrose solution soaked in a cotton wool bung and held under culturing environmental conditions. An assessment of mortality was made 24 hours after exposure. A mosquito was said to be dead if it is unable to right itself once it had fallen over.

Anopheles stephensi [6] = experiment: as above; format: in vivo; details: AI content 2 wt %, after one hour
Excerpt: as §5, §6, §7, §8

[7] = Anopheles stephensi, 1 h, read-out: Knockdown
[8] = Aedes aegypti, 1 h, read-out: Knockdown
[9] = HDPE, polymer 8 to 12 weeks old
[10] = LDPE, polymer 8 to 12 weeks old

| SMILES | pest or weed control at 20 ppm [1, 7] [%] | mortality at 20 ppm ([1]; Anopheles stephensi, 48 h) [%] | mortality at 5 ppm (Aedes aegypti [2]; Aedes aegypti, 48 h) [%] | mortality at 5 ppm (Anopheles stephensi [3]; Anopheles stephensi, 48 h) [%] | pest or weed control at 20 ppm [4, 8] [%] | mortality at 20 ppm ([4]; Aedes aegypti, 48 h) [%] | also measured |
| --- | --- | --- | --- | --- | --- | --- | --- |
| CC1(C)[C@H](C(=O)O[C@H](C#N)c2cccc(Oc3ccccc3)c2)[C@@H]1/C=C(\Cl)C(F)(F)F (racemic) [Lambda-cyhalothrin, reference compound] | – | – | – | – | – | – | pest or weed control at 2 ppm [1, 7]: 83%; mortality at 2 ppm ([1]; Anopheles stephensi, 48 h): 100%; mortality at 0.2 ppm (Aedes aegypti [2]; Aedes aegypti, 48 h): 99%; mortality at 0.2 ppm (Anopheles stephensi [3]; Anopheles stephensi, 48 h): 84%; pest or weed control at 2 ppm [4, 8]: 92%; mortality at 2 ppm ([4]; Aedes aegypti, 48 h): 100% |
| CO/C=C(/C(=O)OC)c1ccccc1COc1cccc(C(F)(F)F)n1 [AC, Picoxystrobin, reference compound] | 100 | 100 | 4 | 75 | 0 | 40 | – |
| CO/C=C(/C(=O)OC)c1ccccc1CO/N=C(\C)c1cc(C(F)(F)C(F)(F)F)ncn1 [Compound 18] | 100 | 100 | 70 | 100 | 0 | 40 | – |
| CO/C=C(/C(=O)OC)c1ccccc1COc1nccnc1C(F)(F)F [Compound 20, Methyl (E)-3-methoxy-2-[2-[[3-(trifluoromethyl)pyrazin-2-yl]oxymethyl]phenyl]prop-2-enoate] | 100 | 100 | 70 | 100 | 100 | 100 | – |
| CO/C=C(/C(=O)OC)c1ccccc1Oc1nccc(C(C)(C)C)n1 [Compound 14] | 0 | 100 | – | – | 0 | 40 | – |
| CO/C=C(/C(=O)OC)c1ccccc1Oc1cc(C(F)(F)F)ncn1 [Compound 11, methyl (E)-3-methoxy-2-[2-[6-(trifluoromethyl)pyrimidin-4-yl]oxyphenyl]prop-2-enoate] | 80 | 100 | – | – | 100 | 100 | – |
| CO/C=C(/C(=O)OC)c1ccccc1COc1nc(F)c(F)cc1F [Compound 23] | 20 | 100 | 60 | 93 | 100 | 100 | – |
| CO/C=C(/C(=O)OC)c1ccccc1COc1ncc(C(F)(F)F)cc1C(F)(F)F [Compound 21] | 100 | 100 | 85 | 100 | 50 | 90 | – |
| CO/C=C(/C(=O)OC)c1ccccc1CO/N=C(\C)c1cc(C(F)(F)F)ccn1 [Compound 15] | 40 | 100 | 70 | 95 | 50 | 100 | – |
| CO/C=C(/C(=O)OC)c1ccccc1COc1ncccc1C(F)(F)F [Compound 19, Methyl (E)-3-methoxy-2-[2-[[3-(trifluoromethyl)-2-pyridyl]oxymethyl]phenyl]prop-2-enoate] | 40 | 100 | 75 | 100 | 20 | 100 | – |
| C=CCOC(=O)c1cccn1/C(=C\OC)C(=O)OC [AB, reference compound] | 100 | 100 | 75 | 80 | 60 | 100 | – |
| CO/C=C(/C(=O)OC)c1ccccc1Oc1cncc(OCC(F)(F)F)n1 [Compound 3] | 100 | 100 | – | – | 0 | 100 | – |
| CO/C=C(/C(=O)OC)c1ccccc1Oc1cc(C(C)(C)C)ncn1 [Compound 9] | 100 | 100 | – | – | 0 | 80 | – |
| CO/C=C(/C(=O)OC)c1ccccc1CO/N=C(C)/C(C)=N/OC [Compound 1] | 40 | 100 | 74 | 100 | 50 | 90 | – |
| CCCc1cccc(OCc2ccccc2/C(=C\OC)C(=O)OC)n1 [Compound 16] | 20 | 100 | 20 | 95 | 0 | 80 | – |
| CO/C=C(/C(=O)OC)c1ccccc1CO/N=C(\C)C(C)C [Compound 12] | 100 | 100 | 43 | 100 | 100 | 100 | knock-down (Aedes aegypti [5]; HDPE, polymer 2 to 4 weeks old): 97%; knock-down (Aedes aegypti [5]; HDPE, polymer 6 to 8 weeks old): 100%; knock-down (Aedes aegypti [5]; LDPE, polymer 2 to 4 weeks old): 100%; knock-down (Aedes aegypti [5]; LDPE, polymer 6 to 8 weeks old): 95%; knock-down (Aedes aegypti [5]; PP, polymer 2 to 4 weeks old): 100%; knock-down (Aedes aegypti [5]; PP, polymer 6 to 8 weeks old): 100%; knock-down (Anopheles stephensi [6]; HDPE, polymer 2 to 4 weeks old): 100%; knock-down (Anopheles stephensi [6]; [9]): 100%; knock-down (Anopheles stephensi [6]; LDPE, polymer 2 to 4 weeks old): 100%; knock-down (Anopheles stephensi [6]; [10]): 30%; knock-down (Anopheles stephensi [6]; PP, polymer 2 to 4 weeks old): 100%; knock-down (Anopheles stephensi [6]; PP, polymer 8 to 12 weeks old): 100% |
| CO/C=C(/C(=O)OC)c1ccccc1Oc1ncnc(C(C)(C)C)n1 [Compound 5, Methyl (E)-2-[2-[(4-tert-butyl-1,3,5-triazin-2-yl)oxy]phenyl]-3-methoxy-prop-2-enoate] | 100 | 100 | 85 | 100 | 100 | 100 | knock-down (Aedes aegypti [5]; HDPE, polymer 2 to 4 weeks old): 33%; knock-down (Aedes aegypti [5]; HDPE, polymer 6 to 8 weeks old): 60%; knock-down (Aedes aegypti [5]; LDPE, polymer 2 to 4 weeks old): 13%; knock-down (Aedes aegypti [5]; LDPE, polymer 6 to 8 weeks old): 85%; knock-down (Aedes aegypti [5]; PP, polymer 2 to 4 weeks old): 80%; knock-down (Aedes aegypti [5]; PP, polymer 6 to 8 weeks old): 70%; knock-down (Anopheles stephensi [6]; HDPE, polymer 2 to 4 weeks old): 100%; knock-down (Anopheles stephensi [6]; [9]): 50%; knock-down (Anopheles stephensi [6]; LDPE, polymer 2 to 4 weeks old): 80%; knock-down (Anopheles stephensi [6]; [10]): 70%; knock-down (Anopheles stephensi [6]; PP, polymer 2 to 4 weeks old): 90%; knock-down (Anopheles stephensi [6]; PP, polymer 8 to 12 weeks old): 20% |
| CO/C=C(/C(=O)OC)c1ccccc1Oc1nnc(C(C)(C)C)o1 [Compound 2, methyl (E)-2-[2-[(5-tert-butyl-1,3,4-oxadiazol-2-yl)oxy]phenyl]-3-methoxy-prop-2-enoate] | 40 | 100 | 90 | 100 | 0 | 80 | – |
| CO/C=C(/C(=O)OC)c1ccccc1COc1ncccc1Cl [F, reference compound] | 60 | 100 | 30 | 20 | 0 | 60 | – |
| Clc1ccc(C(c2ccc(Cl)cc2)C(Cl)(Cl)Cl)cc1 [DDT, reference compound] | – | – | – | – | – | – | Knockdown ([1]; 10 ppm, after 1 hour): 70%; mortality ([1]; 10 ppm, after 48 hours): 80%; mortality (Aedes aegypti [2]; 5 ppm, at 48 hours): 85%; mortality (Anopheles stephensi [3]; 5 ppm, at 48 hours): 59%; Knockdown ([4]; 10 ppm, after 1 hour): 35%; mortality ([4]; 10 ppm, after 48 hours): 90% |
| CO/C=C(/C(=O)OC)c1ccccc1Oc1cc(C(F)(F)C(F)(F)F)ncn1 [Compound 17] | 100 | 100 | 5 | 55 | 100 | 100 | knock-down (Aedes aegypti [5]; LDPE, polymer 4 to 6 weeks old): 100% |
